Assay results as given in patent US20190083455A1, “METHODS AND COMPOSITIONS FOR THE MODULATION OF BETA-ENDORPHIN LEVELS” (The General Hospital Corporation, priority 2014, published 2019).
Where a name gives a salt, the structure may show the parent alone.

Tested on: C57Bl/6 mice
Test: Conditioned place aversion testing
Assay type: in vivo
Experimental: The apparatus used consisted of a box with black interior and dim lighting and a box with white interior and bright lighting connected by a smaller gray “neutral” box, and procedures were followed as described (Skoubis et al., 2001; Weitemier and Murphy, 2009). Mice that had undergone 6 weeks of daily UV exposure or mock exposure were tested for baseline place preferences prior to conditioning (10-minute testing time per mouse). Over the following 4 days, conditioning took place in which mice were either conditioned with naloxone (10 mg/kg ip injection) or saline (ip injection) in the black box, and all animals were conditioned with saline (ip injection) in the white box. Conditioning time in each box was 30 minutes following injection. For each animal there were four hours between conditioning in one box and conditioning in the other box. On the day following the final day of conditioning, place preferences were again tested (post-conditioning, 10-minute testing time per mouse).
Because the magnitude of the measured withdrawal symptoms, while significant, was smaller than that commonly observed with exogenously administered opioids (Broseta et al., 2002), we wished to determine whether these withdrawal signs would be sufficient to elicit alterations in pro-active/operant behavioral choices. We utilized a conditioned place aversion assay (Skoubis et al., 2001; Weitemier and Murphy, 2009) to test whether a specific environment, paired with naloxone administration during conditioning, would be avoided in favor of a different environment paired with a neutral stimulus (saline) during conditioning in chronically UV-irradiated animals. Due to the kinetics of the UV response we chose to use naloxone as it allowed an acute effect of limited duration. Naloxone induces conditioned place aversion in exogenous opioid-dependent mice (Glass et al., 2008; Kenny et al., 2006). Following conditioning, mice were permitted to move freely between the two environments and changes in place preference were measured, in the absence of additional naloxone or saline administration. […]

For `C=CCN1CC[C@]23c4c5ccc(O)c4O[C@H]2C(=O)CC[C@@]3(O)[C@H]1C5` [naloxone, naloxone hydrochloride], the conditioned place aversion (10 mg/kg ip conditioning in the black box, chronically UV-irradiated mice) was “sufficient to induce conditioned place aversion”, the conditioned place aversion (10 mg/kg ip conditioning in the black box, mock-treated (non-UV irradiated) control mice) was “had no effect on mock-treated (non-UV irradiated) control mice” and the conditioned place aversion (K14cre control mice vs p53fl/fl K14cre mice after 3 weeks of daily UV exposure) was “significant naloxone conditioned place aversion”.
